From publication PMC6715681, “A high-throughput screen to identify novel synthetic lethal compounds for the treatment of E-cadherin-deficient cells” (Scientific Reports, 2019) come the findings set out here.

Assay [1] deals with MCF10A CDH1^−/− cells. Put plainly: 11-point dose-response screen, cell titre blue (CTB) viability. It counts as cell-based, human. The settings on record: for Differential at 20 μM: MCF10A WT – MCF10A CDH1−/− POC at 20 μM; for EC50: Homo sapiens, MCF-10A. The procedure:
(§1) The 11-point dose-response screen evaluated a concentration range from 0.02 µM to 20 µM for both isogenic cell lines in duplicate biological replicates (Fig. 4). One limitation to metabolism-based cellular assays is that a change in read out (fluorescence, luminescence or absorbance) may not necessarily be caused by cell death and could instead result from a cessation of proliferation due to senescence or inhibited mitochondrial respiration. For this reason, a direct measurement of cell counts using cellular imaging of nuclei stained with Hoechst 33342 was also included at the 11-point screening stage. For the CTB 11-point screen all plates had acceptable Z’ values above 0.4, with the second biological replicate having 70% above 0.6 (Fig. 4A). The Z’ values for the high-content imaging (HCI) 11-point screen plates were above 0.4 for MCF10A WT, except one plate from biological replicate two with 0.396 (Fig. 4B). However, for MCF10A CDH1^−/− HCI data, only four plates were above a Z’ of 0.4 and the mean Z’ was 0.32 compared to a mean of 0.51 for MCF10A WT. A further quality metric known as the strictly standardized mean difference (SSMD)[40] is a less conservative approach for QC and a cut-off of >3 is generally used. The mean SSMD value was 7.04 for MCF10A WT and 5.27 for MCF10A CDH1^−/− plates and indicates the MCF10A CDH1^−/− HCI data was acceptable[41]. There was a good correlation between the top hits from the HCI and CTB 11-point screening with an overlap of 31 / 40 for the top 40 compounds selected from the eventual hit selection strategies.
(§2) MCF10A WT and MCF10A CDH1^−/− cells were seeded into Corning black walled, clear bottom 384-well plates (assay plates) using a multidrop 384 reagent dispenser (Thermo Fisher Scientific) and a total volume of 50 μL per well.
(§3) As we have shown MCF10A CDH1^−/− cells have a prolonged lag to log phase growth of around 24 hours, in order to achieve a similar confluence at 72 hours post seeding MCF10A WT and MCF10A CDH1^−/− cell lines were seeded at 600 cells/well and 800 cells/well, respectively. Following seeding, plates were left for one hour at RT without stacking[46] and then centrifuged at 500 × g (RCF) for one minute. Plates were then transferred to an incubator at 37 °C and 5% CO2. At 24 hours post seeding, the MiniTrak robotic liquid handling system (Perkin Elmer) was used to transfer 352 compounds per 384-well library plate to the first 22 columns of a 384-well assay plate containing cells to achieve a 10 μM final compound concentration for the pilot, primary and single-point confirmation screens. For the 11-point dose-response screen, compounds were added to columns 1–22, but excluding edge rows A and P of the library plate to reduce edge-effects (Supplementary Fig. 2). The controls of DMSO (0.2% v/v), doxorubicin (EC80) and entinostat (EC50) were added into columns 23–24 of each assay plate (Supplementary Table 1). Cell titre blue[47] was made in-house in sterile PBS from 597 μM resazurin, 78 μM methylene blue, 1 mM potassium hexacyanoferrate (III) and 1 mM potassium hexacyanoferrate (II) trihydrate. At 69 hours post seeding, 16.7% v/v CTB was added to plates and they were incubated at 37 °C for 3 hours (Supplementary Fig. 1). At 72 hours post seeding, plates were removed from the incubator and left for 30 minutes at RT to equalise the temperature across all wells of the plates and reduce fluorescence-based edge effects before reading on an EnVision (PerkinElmer) at 550 nm excitation and 590 nm emission to quantify cell viability.
(§4) Supplementary Table 1. Killing control and SL control effective concentrations.
(§5) Doxorubicin EC80 0.3 µM 0.4 µM
(§6) MCF10A WT cells were seeded at 600/well and MCF10A CDH1-/- cells at 800/well in 384-well plates. Drugs
(§7) were added at 24 hours post seeding and CTB was used as an end-point assay. Concentrations were normalized

Assay [2] has as its system MCF10A WT cells. The assay is described as above. The settings on record: for EC50 / activity at 20 µM: Homo sapiens, MCF-10A; for activity at 20 µM: viability of WT cells at highest concentration 20 μM, read-out: MCF10A WT POC at 20 μM. It counts as cell-based, human. As for the experimental part: as §1, §2, §3, §4, §5, §6, §7
In assay [3] the test system is MCF10A WT and MCF10A CDH1^−/− cells. Description: Single-point confirmation screen (10 μM, CTB, 384-well), viability differential between isogenic lines. It counts as cell-based, human. The settings on record: averaged between three biological replicates, Supplementary Table 2. The procedure:
In the single-point confirmation screen, compounds that preferentially harm MCF10A CDH1^−/− cells compared to the wild-type cells were now identified. Three biological replicates were performed for each of the isogenic cell lines at a single-point (10 μM) in 384-well plates. All assay plates had acceptable Z’ values above 0.4 and 23 out of 48 plates had values above 0.6. The POC R^2 correlation between the three biological replicates for the two isogenic cell lines were all above 0.8 (data not shown). A cell viability differential of ‘MCF10A WT POC – MCF10A CDH1^−/− POC’ was used to select hits. An arbitrary threshold for the mean differential of >8.5% was chosen in order to maximize the number of hits being screened in the subsequent stages and to reduce false negatives.
To incorporate a measure of the variability between replicates of the screen into the hit selection process, a further requirement was included of a minimum of 2/3 biological replicates having viability differentials >8.5%. This removed a further 52 compounds shown in blue with only one out of three biological replicates crossing the Y = X-8.5 line independent of the mean. In total, 256 compounds were above the hit selection threshold, thereby preferentially killing E-cadherin negative cells. The mean POC differential of the 256 hits was 17.6% +/− 7.1 (+/−SD), with the highest being 48% for SLEC-1 (Synthetic Lethal E-Cadherin compound 1). […] The resulting 256 SL compounds were then assayed in an 11-point screen for EC50 determination.
as §2
As we have shown MCF10A CDH1^−/− cells have a prolonged lag to log phase growth of around 24 hours, in order to achieve a similar confluence at 72 hours post seeding MCF10A WT and MCF10A CDH1^−/− cell lines were seeded at 600 cells/well and 800 cells/well, respectively. […] At 72 hours post seeding, plates were removed from the incubator and left for 30 minutes at RT to equalise the temperature across all wells of the plates and reduce fluorescence-based edge effects before reading on an EnVision (PerkinElmer) at 550 nm excitation and 590 nm emission to quantify cell viability.
The coRFU values were then used to calculate the normalized readouts of percent of controls (Eq. 3) and the robust Z score (Eqs 4,5), where doxorubicin refers to an EC80 dose and DMSO was 0.2% v/v.3 coPOC=100×(SamplecoRFU−x¯doxorubicincoRFU)/(x¯DMSOcoRFU−x¯doxorubicincoRFU) 4 MAD=median([…]) 5 CorrectedrobustZscore=(SamplecoRFU−platemediancoRFU)/MAD

Assay [4] concerns MCF10A WT cells. Description: 11-point dose-response screen, high-content imaging (HCI) of Hoechst 33342 nuclei. The settings on record: Homo sapiens, MCF-10A, 11-point screen. In kind it is cell-based. The procedure: as §1
(§8) A direct measurement of cell counts using cellular imaging of nuclei was also included at the 11-point screening stage. Plates were fixed, washed and stained using an ELx405 Select deep well washer (BioTek). Media was first aspirated leaving 10 μL/well, then 4% w/v PFA was added and plates left for 15 minutes at RT. Plates were then washed twice with PBS-T, before aspirating all permeabilization buffer and adding Hoechst 33342 (1 μg/mL final) in PBS. Plates were then stored in the dark at 4 °C, until being imaged on a BD Pathway 855. Two 10x images per well were taken and cell counts enumerated using CellProfiler[48].

Assay [5] deals with MCF10A CDH1^−/− cells. The description is as above. In kind it is cell-based, human. The settings on record: Homo sapiens, MCF-10A; 11-point screen, HCI. The procedure:
as §1, §8

In assay [6] the test system is MCF10A WT cells. Description: Medium-throughput validation in 96-well plates, Hoechst-33342 nuclei counts (CellProfiler). It counts as cell-based. The settings on record: Homo sapiens, MCF-10A, 96-well validation, at least five concentration points. As for the experimental part:
(§9) Cells were seeded into each well of Corning’s black walled, clear bottom 96-well plates with a total volume of 100 μL per well. Edge wells were excluded. Both isogenic cell lines were seeded into the same plate to mitigate plate-to-plate variation. Plates for real-time analysis were transferred to the xCELLigence platform (ACEA Biosciences, USA) or the IncuCyte FLR imaging system (Essen BioScience, USA) as previously described.
(§10) Seventy-two hours post seeding (or 48 hours post compound addition), plates were assayed for cell viability using a one-step cocktail of PFA (0.25% v/v), saponin (0.075% w/v) and Hoechst 33342 (1 μg/ml final) as described previously. CellProfiler was used to enumerate cell counts as previously described.

The test system of assay [7] is MCF10A CDH1^−/− cells. The description is as above. The settings on record: for EC50 ratio (MCF10A WT/MCF10A CDH1^−/−) / EC50: 96-well validation; for EC50: Homo sapiens, MCF-10A, Hoechst nuclei counts, at least five concentration points; for Differential at 5 µM (%): normalized cell counts MCF10A WT – MCF10A CDH1^−/−, 96-well, 48 h post compound addition. It counts as cell-based, human. The procedure: as §9, §10

Where [8] appears, read: killing control, 384-well, CTB, 11-point curve, 72 hrs post seeding.
[9] abbreviates: 11-point screen (0.02–20 µM), CTB values, averaged between two biological replicates, Supplementary Table 2, read-out: MCF10A CDH1 -/- EC50.
Setting [10] is: 11-point screen (0.02–20 µM), CTB values, two biological replicates, for EC50 values > 20, a value of 20 was used, read-out: MCF10A WT EC50.
Setting [11] is: 11-point screen, CTB, read-out: MCF10A CDH1^-/- CTB EC50.

Marks after values point to notes of the source that are not given here.

`COc1cccc2c1C(=O)c1c(O)c3c(c(O)c1C2=O)C[C@@](O)(C(=O)CO)C[C@@H]3O[C@H]1C[C@H](N)[C@H](O)[C@H](C)O1` [Doxorubicin, doxorubicin, reference compound]: the “EC80, MCF10A CDH1-/-” value in the assay on MCF10A CDH1^−/− cells [1] (setting [8]) was 0.4 µM. In the assay on MCF10A WT cells [2] (setting [8]), the “EC80, MCF10A WT” value is listed as 0.3 µM.
`CCOc1ccc2nc(C)cc(SCC(O)C(=O)O)c2c1` (stereo not shown) [SLEC-20]: the “Differential at 1-pt” value in assay [3] is given as 23.81. For the same compound, the “Differential at 20 μM” value in the assay on MCF10A CDH1^−/− cells [1] (11-point screen) is 70.17. Moreover, the figures for the EC50 with MCF10A CDH1^−/− cells [1] (setting [9]) and in the assay on MCF10A WT cells [2] (setting [10]) were 9.38 µM and greater than 20 µM, respectively. Also, the activity at 20 µM in the assay with MCF10A WT cells [2] (11-point screen) was found to be 92.9%.
Take `Nc1ccccc1NC(=O)c1ccc(CNC(=O)OCc2cccnc2)cc1` [Entinostat, entinostat, reference compound]: the EC50 in the assay on MCF10A CDH1^−/− cells [1] (SL control, 384-well, CTB, 11-point curve, 72 hrs post seeding, read-out: EC50, MCF10A CDH1-/-) is 2.4 µM; in the assay on MCF10A WT cells [2] (SL control, 384-well, CTB, 11-point curve, 72 hrs post seeding, read-out: EC50, MCF10A WT), 3.2 µM.
As for `COc1ccc2nc(C)cc(NCC(=O)Nc3cccc(C)c3C)c2c1` [SLEC-12], in assay [3], the “Differential at 1-pt” value is listed as 13.92. Further, the “Differential at 20 μM” value with MCF10A CDH1^−/− cells [1] (11-point screen) was 65.85. Further, the “EC50 ratio between MCF10A WT and MCF10A CDH1^−/− cells” value with MCF10A CDH1^−/− cells [1] (11-point screen, value corresponds to the CTB EC50s of Fig. 5) is given as 6.34 fold change. The EC50 was 3.06 µM in the assay with MCF10A CDH1^−/− cells [1] (setting [11]); 19.4 µM with MCF10A WT cells [2] (setting [10]); 12.6 µM in the assay with MCF10A WT cells [4]; 2.45 µM in the assay with MCF10A CDH1^−/− cells [5]; 13 µM in the assay on MCF10A WT cells [6]; 8.98 µM in the assay on MCF10A CDH1^−/− cells [7]. For the same compound, the activity at 20 µM in the assay on MCF10A WT cells [2] (11-point screen) was 45%. In the assay on MCF10A CDH1^−/− cells [7], the “EC50 ratio (MCF10A WT/MCF10A CDH1^−/−)” value is given as 1.45. Further, in the assay with MCF10A CDH1^−/− cells [7], the “Differential at 5 µM (%)” value came to 11.47%.
Consider `COc1cc(Cl)c(C)cc1NC(=O)c1ccc(CN2CCCC2)cc1` [SLEC-6], for which the EC50 with MCF10A CDH1^−/− cells [1] (setting [11]) was 17.3 µM; in the assay on MCF10A WT cells [2] (11-point screen, CTB, read-out: MCF10A WT CTB EC50) it was greater than 20 µM; in the assay on MCF10A WT cells [4] it was greater than 20 µM; in the assay on MCF10A CDH1^−/− cells [5], 7.79 µM; in the assay with MCF10A WT cells [6] it was 22.6 µM; in the assay on MCF10A CDH1^−/− cells [7], 14.5 µM. The “EC50 ratio (MCF10A WT/MCF10A CDH1^−/−)” value in the assay with MCF10A CDH1^−/− cells [7] amounted to 1.56. In addition, the “Differential at 5 µM (%)” value with MCF10A CDH1^−/− cells [7] is on record as 20.78* %.
Regarding `COc1ccc2nccc(Nc3cccc(C(C)=O)c3)c2c1` [SLEC-2], the “Differential at 1-pt” value in assay [3] is given as 39.99. For the same compound, the “Differential at 20 μM” value in the assay with MCF10A CDH1^−/− cells [1] (11-point screen) was found to be 49.66. Also, the results for the EC50 with MCF10A CDH1^−/− cells [1] (setting [9]) and with MCF10A WT cells [2] (setting [10]) were 3.21 µM and 17.7 µM, respectively. The activity at 20 µM with MCF10A WT cells [2] (11-point screen) was 42.3%.
